Results taken from patent US20260216138A1, “IDENTIFICATION OF OTUD7B INHIBITOR 7BI AND ITS APPLICATION IN REDUCING GROWTH OF NSCLC AND LEUKEMIA CELLS” (The University of North Carolina at Chapel Hill, priority 2023, published 2026).

Tests used:
Akt-pS473 = Akt-pS473 western blotting in NSCLC cells (A549, H358, H520, H1299); assay type: cell-based
Protocol: (§1) Cells were harvested and lysed in EBC buffer (50 mM Tris pH 7.5, 120 mM NaCl, 0.5% NP-40) supplemented with protease inhibitor cocktail (EDTA-free, mini-tablet) (Bimake) and phosphatase inhibitor cocktail (Bimake) by rotating in the cold room for 10 min followed by high-speed centrifugation at 4° C. The protein concentrations in supernatants of whole cell lysates were measured by NanoDrop OneC using the Bio-Rad Bradford protein assay reagent. Equal amounts of whole cell lysates were resolved on SDS-PAGE and immunoblotted with indicated antibodies. For immunoprecipitation analysis, 1 mg of total cell lysate was incubated with the indicated beads for 3-4 hr at 4° C. The recovered immuno-complexes were washed thoroughly three times with NETN buffer (20 mM Tris, pH 8.0, 100 mM NaCl, 1 mM EDTA and 0.5% NP-40) before being resuspended in SDS sample buffer and resolved on SDS-PAGE and immunoblotted with indicated antibodies.
Next, we used two approaches to search for possible OTUD7B inhibitors by monitoring Akt-pS473 changes including Akt-pS473 ELISA and western blotting in A549 cells treated with each of these 59 small molecules for 16 hrs at a concentration of 10 uM (FIG. 1A). In Akt-pS473 ELISA assays using Torin 2 (a pan-mTOR inhibitor) as a positive control and DMSO as a negative control (FIG. 1E), we found 15 compounds with an inhibitory ability above 30% (FIG. 1F). […]

OTUD7B binding to GβL = biological target: T1, OTUD7B binding to GβL (Homo sapiens, UniProt Q6GQQ9); experiment: OTUD7B binding to GβL; assay type: cell-based
T1 sequence (Q6GQQ9 1-843): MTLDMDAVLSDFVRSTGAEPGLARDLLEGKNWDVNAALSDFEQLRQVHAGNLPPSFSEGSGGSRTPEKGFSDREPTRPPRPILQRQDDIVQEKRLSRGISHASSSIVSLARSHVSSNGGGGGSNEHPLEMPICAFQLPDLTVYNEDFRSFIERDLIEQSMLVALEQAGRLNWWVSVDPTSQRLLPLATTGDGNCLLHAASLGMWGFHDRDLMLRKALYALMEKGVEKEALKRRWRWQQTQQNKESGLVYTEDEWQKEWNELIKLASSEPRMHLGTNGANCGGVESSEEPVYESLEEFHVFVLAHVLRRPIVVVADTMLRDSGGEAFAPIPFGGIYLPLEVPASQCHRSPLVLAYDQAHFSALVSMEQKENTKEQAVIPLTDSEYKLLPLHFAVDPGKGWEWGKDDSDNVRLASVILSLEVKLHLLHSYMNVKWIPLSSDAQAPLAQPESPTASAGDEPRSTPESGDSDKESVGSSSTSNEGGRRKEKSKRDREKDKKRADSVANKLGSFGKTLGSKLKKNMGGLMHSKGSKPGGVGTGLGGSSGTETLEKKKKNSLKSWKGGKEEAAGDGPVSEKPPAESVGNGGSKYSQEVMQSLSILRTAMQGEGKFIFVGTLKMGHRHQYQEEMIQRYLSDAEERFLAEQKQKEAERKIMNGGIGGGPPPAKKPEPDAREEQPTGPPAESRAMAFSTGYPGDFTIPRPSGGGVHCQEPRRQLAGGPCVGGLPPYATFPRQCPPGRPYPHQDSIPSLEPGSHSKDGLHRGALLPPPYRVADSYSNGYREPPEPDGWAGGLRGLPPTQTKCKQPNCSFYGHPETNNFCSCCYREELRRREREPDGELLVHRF
Protocol: as §1

- IC50 (Akt-pS473; NSCLC cells, read-out: IC50 values to inhibit Akt-pS473 signals): 1 to 10 µM
SMILES: Cc1cc(NC(=O)c2cnn(C)c2C(=O)Nc2cc(C)nn2C2CCCC2)n(C2CCCC2)n1 [7Bi]
- suppressing Akt-pS473 signal in at least 3 out of 4 NSCLC lines tested (Akt-pS473; A549, H358, H520, H1299, 10 uM for 16 hrs, dose- and time-dependent): showed effects in suppressing Akt-pS473 signal
- OTUD7B binding to GβL (OTUD7B binding to GβL): nor significantly affected OTUD7B binding to GβL
